The values below come from patent publication US20240300945A1, “CLY SERIES COMPOUND, PREPARATION METHOD THEREFOR AND USE THEREOF IN PREPARATION OF DRUGS” (NANJING WELLBEST PHARMACEUTICAL CO., LTD, priority 2021, published 2024).

For one assay, the system named is mouse eczema model. The assay is described as follows: Mouse eczema model: ear thickness. In kind it is in vivo, C57BL/6 mice. The note with it: after modeling, 14th day; 0.1% cream for external use twice a day, 10 days (positive: aloxone). An excerpt:
Preparation method of CLY cream: the matrix components included methyl silicone oil (15%), stearic acid (6%), white vaseline (5%), liquid paraffin (5%), octadecanol (5%), glycerin (20%), alkyl aryl polyglycol ether (1%), fatty alcohol polyoxyethylene ether (1%), Tween-807 (1%), ethyl paraben (0.1%), distilled water (about 31-55%), and it was mixed with an appropriate amount of CLY series compound liquid to form a mixed emulsion. The cream matrix used in this embodiment refers to the matrix components after the active ingredients were removed from the cream.
SPF grade female C57BL/6 mice were purchased at the age of 8 weeks (0.02 kg), 6 in each group, and randomly divided into the blank control group, model group, positive drug group, CLY-1 treatment group (0.1% CLY-1 cream for external use), CLY-2 treatment group (0.1% CLY-2 cream for external use), CLY-3 treatment group (0.1% CLY-3 cream for external use), CLY-4 treatment group (0.1% CLY-4 cream for external use), CLY-8 treatment group (0.1% CLY-8 cream for external use), CLY-11 treatment group (0.1% CLY-11 cream for external use) CLY-19 treatment group (0.1% CLY-19 cream for external use), CLY-36 treatment group (0.1% CLY-36 cream for external use) and CLY-39 treatment group (0.1% CLY-39 cream for external use).
Model establishment: the normal control group mice were smeared with 75% ethanol 14.3 ul on both ears, while the model group, positive drug group and treatment group were smeared with 1 nmol/L carpotriol liniment 14.3 ul on both ears at a regular time every day, and then smeared with 20 g/L OVA 25 ul after air drying, once a day, for 12 days to make a model.
From 4 days after the start of modeling, applied the cream matrix on the ear skin of mice in the blank control group and the model group, applied aloxone on the ear skin of mice in the positive drug group, and applied the treatment cream on the ear skin of mice in each treatment group respectively, twice a day in the morning and evening, for 10 consecutive days, took photos every day, and recorded scores.
The thickness of mouse auricle was measured and recorded with ear thickness measuring instrument before and on the 14th day respectively. After the measurement on the 14th day, the mice were sacrificed. Blood was taken and serum was separated.

For another assay, the system named is rat scar model. The assay is described as follows: Rat scar model (skin wound healing). The format is in vivo. The note with it: rat back wound 2.4 cm; 0.5% cream on the skin. From the text: 1.1 Preparation method of treatment cream: The excipient matrix components included methyl silicone oil (15%), stearic acid (6%), white vaseline (5%), liquid paraffin (5%), octadecanol (5%), glycerin (20%), alkylaryl polyglycol ether (1%), fatty alcohol polyoxyethylene ether (1%), […] (1%), ethyl paraben (0.1%), distilled water (about 31-55%), and mixed with appropriate amount of CLY series compounds to form a mixed emulsion. The emulsion matrix used in this embodiment refers to the matrix component after the active ingredient was removed from the emulsion.
1.2 Grouping and modeling of experimental animals: SPF grade male rats, weighing (210±28) g, from the Animal Center of Nanyi University. The rats were numbered according to their body weight and using the random array method, samples were divided into the model control group (applied cream matrix), CLY-1 treatment group (applied 0.5% CLY-1 cream on the skin), CLY-2 treatment group (applied 0.5% CLY-2 cream on the skin), CLY-3 treatment group (0.5% CLY-3 cream on the skin), CLY-4 treatment group (0.5% CLY-4 cream on the skin), CLY-8 treatment group (0.5% CLY-8 cream on the skin), CLY-11 treatment group (0.5% CLY-11 cream on the skin) CLY-19 treatment group (0.5% CLY-19 cream on the skin), CLY-36 treatment group (0.5% CLY-36 cream on the skin), and CLY-39 treatment group (0.5% CLY-39 cream on the skin), 6 in each group. Rats in each group were anesthetized by intraperitoneal injection of 2% pentobarbital sodium (120 mg/kg) and fixed on the operating table, and then chose a piece of 4×5 cm of intact skin on the back, 8% sodium sulfide hair removal, used tissue scissors to cut a wound with a diameter of 2.4 cm and a depth of muscle fascia at the hair removal site, and damage part of the muscle surface fascia. Animals were kept in separate cages to prevent rats from biting and licking. Applied 2% iodine tincture daily to the wound for routine disinfection, and observed the wound healing of rats.
The wounds were routinely disinfected every day, and the wounds of rats were observed on the 1st, 3rd, 5th, 7th, 12th, and 20th days. […] On the 12th day, the wounds in each treatment group had basically recovered, while the model group still had about 0.5 cm2 of wounds. By the 20th day, the wounds in each group had recovered, and the model control group left obvious scars, while each treatment group only left different amounts of pigmentation.

Regarding `O=C(c1ccc(-c2ccccc2Cl)cc1)N(c1ncccc1Cl)[C@@H]1CCCNC1` [CLY-36], the Ear thickness in the assay on mouse eczema model was 0.248 mm. Besides, the “skin wound healing and scar formation” value with rat scar model is “significantly promote skin wound healing and reduce scar formation”.
In the assay with mouse eczema model, `CNC1CCCC(N(C(=O)c2ccc(-n3nnc4cccnc43)cc2)c2ncccc2Cl)C1` (stereo not drawn) [CLY-3] yielded an Ear thickness of 0.297 mm. Further, in the assay on rat scar model, the “skin wound healing and scar formation” value is “significantly promote skin wound healing and reduce scar formation”.
Take `Nc1ccccc1-c1ccc(C(=O)N(c2ncccc2Cl)[C@@H]2CCCNC2)cc1` [CLY-39]: the Ear thickness in the assay on mouse eczema model amounted to 0.246 mm. Also, in the assay on rat scar model, the “skin wound healing and scar formation” value is “significantly promote skin wound healing and reduce scar formation”.
In turn, `O=C(c1ccc(-n2nnc3cccnc32)cc1)N(c1ncccc1Cl)[C@@H]1CCNC1` [CLY-8, (R)-4-(3H-[1,2,3]triazolo[4,5-b]pyridin-3-yl)-N-(3-chloropyridin-2-yl)-N-(pyrrolidin-3-yl)benzamide] yielded an Ear thickness with mouse eczema model of 0.245 mm. The “skin wound healing and scar formation” value in the assay on rat scar model was “significantly promote skin wound healing and reduce scar formation”.
In the assay on mouse eczema model, `CN1CCC[C@@H](N(C(=O)c2ccc(-n3nnc4cccnc43)cc2)c2ncccc2Cl)C1` [CLY-1, (R)-4-(3H-[1,2,3]triazolo[4,5-b]pyridin-3-yl)-N-(3-chloropyridin-2-yl)-N-(1-methylpiperidin-3-yl)benzamide] returned an Ear thickness of 0.251 mm. Moreover, the “skin wound healing and scar formation” value in the assay on rat scar model is “significantly promote skin wound healing and reduce scar formation”.
Molecule `CCN1CCC[C@@H](N(C(=O)c2ccc(-n3nnc4cccnc43)cc2)c2ncccc2Cl)C1` [CLY-2, (R)-4-(3H-[1,2,3]triazolo[4,5-b]pyridin-3-yl)-N-(3-chloropyridin-2-yl)-N-(1-ethylpiperidin-3-yl)benzamide] came in with an Ear thickness in the assay with mouse eczema model of 0.246 mm. In addition, the “skin wound healing and scar formation” value in the assay with rat scar model is “significantly promote skin wound healing and reduce scar formation”.
Regarding `NC1CCCC(N(C(=O)c2ccc(-n3nnc4cccnc43)cc2)c2ncccc2Cl)C1` (stereo not drawn) [CLY-11], the Ear thickness with mouse eczema model is 0.278 mm. In addition, the “skin wound healing and scar formation” value with rat scar model was “significantly promote skin wound healing and reduce scar formation”.
In turn, `O=C(c1ccc(-n2nnc3cccnc32)cc1)N(c1ncccc1Cl)C1CCCC(O)C1` (stereo not drawn) [CLY-4] yielded an Ear thickness with mouse eczema model of 0.323 mm. In addition, the “skin wound healing and scar formation” value in the assay with rat scar model is “significantly promote skin wound healing and reduce scar formation”.
The molecule `O=C(c1ccc(-c2ccccc2-c2nnn[nH]2)cc1)N(c1ncccc1Cl)[C@@H]1CCCNC1` [CLY-19] returned an Ear thickness in the assay with mouse eczema model of 0.253 mm. In the assay on rat scar model, the “skin wound healing and scar formation” value is “significantly promote skin wound healing and reduce scar formation”.
